Results published in BindingDB's records for patent US20250136570 (Tango Therapeutics, 2025).

Target: Histone deacetylase 1 (Homo sapiens, UniProt Q13547)
Test: HDAC1 & HDAC3 Inhibition Assay
Protocol: IC50 determination for HDAC1 and HDAC3-Prior to adding reagents, 50 nL/well of compound were added to Proxiplates using an Echo dispenser instrument (Beckman Coulter, CA, US). After addition of compound, 2.5 μL/well of 2× enzyme solution was added and the enzyme was pre-incubated with compound for 3 hours at room temp. (˜22° C.). After the pre-incubation period, the enzyme reaction was initiated by adding 2.5 μL/well of 2× Fluor de Lys substrate solution. The assay reaction was stopped after one hour by adding 5 μl/well of a 0.66× Developer solution containing TSA (3.2 μM). The final product of the enzyme reaction was read using a Spectramax plate reader instrument (Molecular Devices, CA, US) using a fluorescent readout (Ex 360 nm/Em 460 nm). The final enzyme concentrations in the assay buffer for HDAC1 and 3 were 6 and 1.2 nM, respectively. The final Fluor de Lys substrate concentration in the assay buffer was 16 μM for all HDAC enzymes. IC50 values were determined using the following equation:EfreeEo=100(1-11+(1IC50)n)(1)Where Efree and Eo are the free and total amount of HDAC enzyme in the reaction mixture, n is the hill coefficient, I is the free inhibitor concentration, and IC50 is the measure of the potency equivalent to the inhibitor concentration that leads to a 50% occupancy of the total enzyme. Each data was generated in duplicate.

Sequence of Histone deacetylase 1 (Q13547 whole entry): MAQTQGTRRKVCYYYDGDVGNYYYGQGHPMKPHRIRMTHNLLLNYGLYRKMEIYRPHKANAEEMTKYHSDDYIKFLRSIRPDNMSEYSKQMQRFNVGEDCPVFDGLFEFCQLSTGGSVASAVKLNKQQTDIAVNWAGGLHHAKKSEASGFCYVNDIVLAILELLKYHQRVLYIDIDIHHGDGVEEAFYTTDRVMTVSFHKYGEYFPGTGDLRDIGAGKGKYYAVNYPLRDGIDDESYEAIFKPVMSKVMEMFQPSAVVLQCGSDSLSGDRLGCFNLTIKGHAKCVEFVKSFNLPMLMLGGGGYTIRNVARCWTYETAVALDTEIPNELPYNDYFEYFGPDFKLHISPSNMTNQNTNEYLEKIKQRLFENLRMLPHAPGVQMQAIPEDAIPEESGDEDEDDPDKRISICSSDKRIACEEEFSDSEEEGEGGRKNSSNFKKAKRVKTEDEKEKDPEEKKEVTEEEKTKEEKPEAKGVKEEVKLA

Compound	IC50 [nM]
Nc1ccc(-c2ccc(F)s2)cc1NC(=O)c1ccc(S2(=O)=NCCC2)cc1 (stereo unspecified) [US20250136570, Compound 160]	< 100
Nc1ccc(-c2ccc(F)cc2)cc1NC(=O)c1ccc(S2(=O)=NCCC2)nc1 (stereo unspecified) [US20250136570, Compound 178]	< 100
Nc1ccc(-c2ccc(F)cc2)cc1NC(=O)c1ccc(S2(=O)=NCCCC2)cc1 (stereo unspecified) [US20250136570, Compound 243]	< 100

Other lines, results leading:

IC50 [nM]	Compound
< 100	Nc1ccc(-c2cccs2)cc1NC(=O)c1ccc(S2(=O)=NCCC2)cc1 (stereo unspecified) [US20250136570, Compound 126]
< 100	Nc1ccc(-c2ccc(F)cc2)cc1NC(=O)c1cc2cc(S3(=O)=NCCC3)ccc2s1 (stereo unspecified) [US20250136570, Compound 204]
< 100	N=S(=O)(c1ccc(C(=O)Nc2cc(-c3ccc(F)cc3)ccc2N)cc1)c1ccc(Cl)cn1 (stereo unspecified) [US20250136570, Compound 213]
